Patent US9353096B2, “Substituted phenylcarbamate compounds” (Hoffmann-La Roche Inc., priority 2012, dated 2016)
Where a name gives a salt, the structure may show the parent alone.

These molecules were tested against hTRPA1 (Homo sapiens, UniProt O75762) (assay: Dose response calcium flux (FLIPR) assay, ChanTest hTRPA1-CHO stably transfected cell line, cinnamaldehyde agonist). Settings: CHO-K1 Tet-On hTRPA1 cells, 100 uM cinnamaldehyde agonist, 30 min preincubation.
Assay type: cell-based
Protocol: Dose Response Assay:ChanTest hTRPA1-CHO Stably Transfected Cell Line
CHO-K1 Tet-On_HOMSA_TRPA1_Clone_20
Growth Media for CHO-K1 Tet-On_HOMSA_TRPA1_Clone_20 • Ham's F-12 with 10% tetracycline-free FBS • 1× penicillin-streptomycin • 1× glutamax • 0.01 mg/ml Blasticidin • 0.40 mg/ml Zeocin • The cell line doubling rate was ˜15 h. […] Experiments were run at 24 h post induction.
Plating Conditions CHOK1/TRPA1 Cells: • Harvested cells with 0.025% trypsin/EDTA. • Resuspended cells in growth media without selection antibiotics. • Measured cell density and diluted to 2.4×10^5 cells/ml in media containing 1 ug/ml Doxycycline Plate 25 ul/well into 384 well black/clear tissue culture-treated plates. • Incubated overnight at 37° C.
Replacement Buffer: Hank's Balanced Salt Solution, 20 mM HEPES along with 0.005% BSA and 2× Probenecid
Dye Loading Buffer: Cal-3 NW Calcium dye was prepared by dissolving the contents of one vial with […] Hank's Balanced Salt Solution containing 20 mM HEPES.
AP-18, stock 10 mM, prepare 3.5× compound dilution in a Compound Buffer (HBSS/20 mM HEPES/0.005% BSA)—final concentration 10 uM.
Preparation of Cinnamaldehyde (Agonist Addition): • FW=132.16 • Specific gravity=1.046 gm/cc • 1.32 gm/1.046 gm/cc=1.26 ml of stock • Add 1.74 ml DMSO=3.3 M stock • Working solution 4.5× (final 100 uM in Compound Buffer: HBSS/20 mM HEPES/0.005% BSA)
Compounds dilutions were prepared from 5 or 10 mM stock (100% DMSO): • Adjustments of volumes and concentrations were made at time of titration to reflect desired final assay concentrations. • Compounds were tested at either 20 μM three folds dilution 11 steps out or 30 μM two folds dilution 11 steps out. • 3 μl of diluted compound were transferred into Weidmann 384-well plate in duplicates side-by-side. • Compound plates were resuspended with 100 ul of HBSS/20 mM HEPES/0.005% BSA buffer (Compound Buffer): • column 1A-H: buffer/DMSO (bk) • column 2A-H: AP-18 (control antagonist for CHOK1 TRPA1 cells) • column 1I-P: ATP (control for CHOK1 teton cells) • column 2I-P: 2APB (control antagonist for CHOK1/TRPM8 cells).
Growth media was removed from the cell plates (20 ul) and 20 μl of the Replacement Buffer was added followed by addition of 25 μl of diluted dye. All three steps were performed using a Plate Washer BioTek 407. The plates were then incubated for 30′ at RT.
After incubation, both the cell and compound plates were brought to the FLIPR and 20 μl of the diluted compounds/antagonist/bk were transferred to the cell plates by the FLIPR. Plates were then incubated for 30′ at room temperature. After 30′ incubation, plates were returned to the FLIPR and 20 μl of 4.5× Cinnamaldehyde was added to the cell plates. During the compound addition as well as agonist addition, fluorescence readings were taken simultaneously from all 384 wells of the cell plate every 1.5 seconds. Five readings were taken to establish a stable baseline, then 20 μl of sample was rapidly (30 ul/sec) and simultaneously added to each well of the cell plate. The fluorescence was continuously monitored before, during and after sample/agonist addition for a total elapsed time of 100 seconds (compound addition) and 120 seconds (agonist addition). Responses (increase in peak fluorescence) in each well following agonist addition was determined. The initial fluorescence reading from each well, prior to ligand stimulation, was used a zero baseline value for the data from that well.

hTRPA1, sequence (O75762 whole entry): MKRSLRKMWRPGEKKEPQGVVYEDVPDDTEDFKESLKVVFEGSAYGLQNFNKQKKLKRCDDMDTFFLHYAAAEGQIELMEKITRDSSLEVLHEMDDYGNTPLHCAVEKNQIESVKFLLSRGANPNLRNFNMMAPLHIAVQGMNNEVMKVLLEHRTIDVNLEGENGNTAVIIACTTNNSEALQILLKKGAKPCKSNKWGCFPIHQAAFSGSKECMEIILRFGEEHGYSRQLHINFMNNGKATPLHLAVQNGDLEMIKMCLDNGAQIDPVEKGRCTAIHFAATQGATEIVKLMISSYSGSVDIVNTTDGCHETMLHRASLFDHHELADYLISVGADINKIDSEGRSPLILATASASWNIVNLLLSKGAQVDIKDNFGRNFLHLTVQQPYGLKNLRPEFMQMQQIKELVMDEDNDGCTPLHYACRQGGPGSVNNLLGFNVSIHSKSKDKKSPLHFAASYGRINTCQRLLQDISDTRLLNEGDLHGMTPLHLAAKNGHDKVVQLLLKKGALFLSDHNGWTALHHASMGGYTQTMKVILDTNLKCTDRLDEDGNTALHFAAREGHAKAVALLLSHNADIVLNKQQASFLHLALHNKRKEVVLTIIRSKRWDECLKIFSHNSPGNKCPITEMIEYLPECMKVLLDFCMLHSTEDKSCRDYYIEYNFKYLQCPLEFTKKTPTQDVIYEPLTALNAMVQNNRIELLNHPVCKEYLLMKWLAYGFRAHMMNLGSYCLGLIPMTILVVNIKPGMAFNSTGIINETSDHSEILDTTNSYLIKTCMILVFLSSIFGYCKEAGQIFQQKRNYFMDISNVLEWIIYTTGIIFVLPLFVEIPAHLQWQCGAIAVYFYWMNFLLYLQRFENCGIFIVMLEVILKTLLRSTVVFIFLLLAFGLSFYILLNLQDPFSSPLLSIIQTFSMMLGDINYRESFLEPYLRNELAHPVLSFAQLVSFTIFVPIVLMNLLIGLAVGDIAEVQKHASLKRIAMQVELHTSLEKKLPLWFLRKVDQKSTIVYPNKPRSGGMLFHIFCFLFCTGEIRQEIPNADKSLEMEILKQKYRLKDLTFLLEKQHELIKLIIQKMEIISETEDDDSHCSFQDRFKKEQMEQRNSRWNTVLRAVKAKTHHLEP

Compared with O=C(Nc1ccc(Cl)cc1)O[C@@H](CN1CCS(=O)(=O)CC1)C(F)(F)F [Example 48, (4-Chlorophenyl)-carbamic acid (S)-1-(1,1-dioxo-1λ^6-thiomorpholin-4-ylmethyl)-2,2,2-trifluoroethyl ester hydrochloride], O=C(Nc1ccc(Cl)cc1)O[C@@H](CN1CCO[C@H](Cc2cccs2)C1)C(F)(F)F [Example 49, (4-Chlorophenyl)-carbamic acid (S)-2,2,2-trifluoro-1-((R)-2-thiophen-2-ylmethyl-morpholin-4-ylmethyl)-ethyl ester hydrochloride] is 31-fold lower in IC50: 3560 nM for the first, 115 nM for the second.

Going from COc1ccc(C[C@@H]2CN(C[C@H](OC(=O)Nc3ccc(Cl)cc3)C(F)(F)F)CCO2)cn1 [Example 50, (4-Chloro-phenyl)-carbamic acid (S)-2,2,2-trifluoro-1-[(R)-2-(6-methoxy-pyridin-3-ylmethyl)-morpholin-4-ylmethyl]ethyl ester] to COc1cccc(C[C@@H]2CN(C[C@H](OC(=O)Nc3ccc(Cl)cc3)C(F)(F)F)CCO2)n1 [Example 51, (4-Chlorophenyl)-carbamic acid (S)-2,2,2-trifluoro-1-[(R)-2-(6-methoxy-pyridin-2-ylmethyl)-morpholin-4-ylmethyl]ethyl ester], the IC50 rises from 244 nM to 398 nM (1.6-fold).
